What is called IC50 is the midpoint of a concentration-inhibition curve. Low readings indicate greater potency, high ones weaker potency.

In BindingDB's records for doi:10.1016/j.bmc.2011.01.052 (Kinki University, 2011) one finds IC50 data, which are given here for seven compounds.

The nature of the assay: Inhibition of rat intestinal maltase.
`OC[C@@H]1[C@@H](O)[C@H](O)C[S@+]1C[C@@H](O)[C@H](O)[C@H](O)[C@@H](O)CO` [1,4-Dideoxy-1,4-{(R)-[(2S,3R,4R,5S)-2,3,4,5,6-pentahydroxyhexyl]episulfoniumylidene}-D-arabinitol chloride]: the IC50 is 1.3 µM.
The figure for `OC[C@@H](O)C[S@@+]1C[C@@H](O)[C@H](O)[C@H]1CO` [1,4-dideoxy-1,4-{(R)-[(2S)-2,3-dihydro-xypropyl]episulfoniumylidene}-D-arabinitol Chloride] is 105 µM; for `OC[C@@H](O)[C@@H](O)[C@H](O)[C@H](O)C[S@@+]1C[C@@H](O)[C@H](O)[C@H]1CO` [(1R,2R,3S,4S)-3,4-dihydroxy-2-(hydroxymethyl)-1-((2S,3S,4R,5R)-2,3,4,5,6-pentahydroxyhexyl)tetrahydro-1H-thiophenium chloride] it is 4.3 µM.
`OC[C@@H]1[C@@H](O)[C@H](O)C[S@+]1C[C@@H](O)[C@@H](O)[C@H](O)[C@@H](O)CO` [(1R,2R,3S,4S)-3,4-dihydroxy-2-(hydroxymethyl)-1-((2S,3S,4R,5S)-2,3,4,5,6-pentahydroxyhexyl)tetrahydro-1H-thiophenium chloride] yielded an IC50 of 5.1 µM.
`OC[C@@H]1[C@@H](O)[C@H](O)C[S@+]1C[C@@H](O)[C@@H](O)[C@H](O)[C@H](O)[C@@H](O)CO` [(2R,3S,4S)-1-[(2S,3S,4R,5R,6S)-2,3,4,5,6,7-hexahydroxyheptyl]-3,4-dihydroxy-2-(hydroxymethyl)tetrahydrothiophenium (non-preferred name)]: half-maximal inhibition (IC50) required 4.8 µM.
In the case of `OC[C@H](O)C[S@@+]1C[C@@H](O)[C@H](O)[C@H]1CO` [Neosalaprinol], the IC50 was > 384 µM.
`O=S(=O)([O-])O[C@@H]([C@H](O)[C@@H](O)CO)[C@H](O)C[S@@+]1C[C@@H](O)[C@H](O)[C@H]1CO` [ponkoranol] came in with an IC50 of 3.2 µM.
